Results reported in paper PMC11904715, “Discovery of Novel Pyrrolidine-Based Chalcones as Dual Inhibitors of α-Amylase and α-Glucosidase: Synthesis, Molecular Docking, ADMET Profiles, and Pharmacological Screening” (ACS Omega, 2025).

How the values were obtained:
[1] = tested on: nonsmall lung cancer (A549) cells; test: Cytotoxic activity, MTT cell viability assay, A549; type: cell-based; conditions: Homo sapiens, A549, 24 h
Experimental: (§1) In this research, the nonsmall lung cancer (A549) and bronchial epithelial normal (BEAS-2B) cells were used for cytotoxicity experiments. All of the cells were cultured in Dulbecco’s Modified Eagle Medium (Gibco, USA) cell medium containing 10% fetal calf serum (FBS; Gibco, USA) and 1% penicillin/streptomycin (Gibco, USA) in an incubator at 37 °C and 5% CO2.[49],[50]
(§2) In a 96-well cell culture plate, cells were seeded at a density of 6 × 10^4 cells/mL and observed to be cultured for 24 h. The cells must have 70% confluence before chemical exposure. After 70% confluency incubation, the cells were treated with different concentrations of compounds for 24 h. All chemicals were dissolved in DMSO. […] The amount of DMSO contained in the chemical at the highest concentration was used as a negative control.
(§3) Cell viability was determined by 3-[4,5-dimethylthiazol-2-yl]-2,5-diphenyltetrazolium bromide (MTT) assay. This method is specifically used to evaluate live cells. The succinate dehydrogenase system of active mitochondria reduces the tetrazolium salt MTT to formazan.[51] For the MTT assay, MTT solution […] was added into the cells (200 μL/well) and incubated for 1 h at 37 °C. Absorbance was measured at 570 nm using an Epoch microplate spectrophotometer (BioTek Instruments, Winooska, VT).[52]

[2] = molecular target: α-amylase; test: α-amylase inhibitory activity, spectrophotometric starch/Lugol method; type: biochemical; conditions: mean ± SEM of three parallel measurements; concentration range 50–100–200–400 μM; read-out: antidiabetic inhibition activity IC50 α-amylase
Experimental: Briefly, 25 μL of the sample solution at various concentrations was mixed with 50 μL of an α-amylase solution (0.1 U/mL) in a phosphate buffer (20 mM, pH 6.9, prepared with 6 mM NaCl) in a 96-well microplate. This mixture was preincubated at 37 °C for 10 min. Following the preincubation, 50 μL of a starch solution (0.05%) was added, and the reaction mixture was incubated for another 10 min at 37 °C. The reaction was then terminated by adding 25 μL of HCl (0.1 M), followed by the addition of 100 μL of Lugol’s solution for monitoring.
(§4) All biological activity data were taken in three parallel measurements for four different concentrations of each synthesis sample. The results of the biological activity analyses are presented as the IC50 values.

[3] = Cytotoxic activity, MTT cell viability assay, BEAS-2B; type: cell-based; conditions: human, BEAS-2B normal bronchial epithelial cells
Experimental: as §1, §2, §3

[4] = tested on: α-glucosidase; test: α-glucosidase inhibitory activity, spectrophotometric p-nitrophenyl-α-D-glucopyranoside method; type: biochemical; conditions: for IC50: mean ± SEM of three parallel measurements, concentration range 50–100–200–400 μM, read-out: antidiabetic inhibition activity IC50 α-lucosidase
Experimental: Specifically, 50 μL of phosphate buffer (10 mM, pH 6.9), 25 μL of p-nitrophenyl-α-D-glucopyranoside in phosphate buffer (10 mM, pH 6.9), 10 μL of sample solution, and 25 μL of α-glucosidase (0.1 U/mL) in phosphate buffer (10 mM, pH 6.0) were combined in a 96-well microplate. After 20 min of incubation at 37 °C, 90 μL of Na2CO3 (100 mM) was added to each well to halt the enzymatic reaction. The absorbance was measured at 400 nm by using a 96-well microplate reader.
as §4

[5] = molecular target: alpha-amylase; set-up: method as in PMID 34064448, PMID 32525781, PMID 33272713, PMID 35832461, PMID 28495082; conditions: Figure 1 design strategy; cited from earlier work
[6] = tested on: bronchial epithelial normal (BEAS-2B) cells; test: Cytotoxic activity, MTT cell viability assay, BEAS-2B; type: cell-based; conditions: at the determined IC50 values
Experimental: as §1, §2, §3

Compound	IC50 [1] [µM]	IC50 [2] [µM]	IC50 at 24 h [3] [µM]	α-glucosidase inhibitory effect compared with acarbose [4]	IC50 [4] [µM]	IC50 [5] [µM]	toxic effect on healthy BEAS-2B cells [6]
O=C(/C=C/c1cc(C(F)(F)F)cc(C(F)(F)F)c1)c1ccc(N2CCCC2)cc1 [Compound 10, (E)-3-(3,5-bis(trifluoromethyl)phenyl)-1-(4-(pyrrolidin-1-yl)phenyl)prop-2-en-1-one]	> 100	39.68 ± 0.27	> 100	better inhibitory effect	44.2 ± 2.42	–	–
O=C(/C=C/c1ccccc1)c1ccc(N2CCCC2)cc1 [Compound 1, (E)-3-Phenyl-1-(4-(pyrrolidin-1-yl)phenyl)prop-2-en-1-one]	> 100	–	> 100	better inhibitory effect	50.2 ± 2.32	–	–
O=C(/C=C/c1ccccc1F)c1ccc(N2CCCC2)cc1 [Compound 2, (E)-3-(2-fluorophenyl)-1-(4-(pyrrolidin-1-yl)phenyl)prop-2-en-1-one]	> 100	51.96 ± 0.12	> 100	–	189 ± 1.94	–	–
O=C(/C=C/c1cccc(F)c1)c1ccc(N2CCCC2)cc1 [Compound 3, (E)-3-(3-fluorophenyl)-1-(4-(pyrrolidin-1-yl)phenyl)prop-2-en-1-one]	> 100	–	> 100	better inhibitory effect	–	–	–
O=C(/C=C/c1cccc(C(F)(F)F)c1F)c1ccc(N2CCCC2)cc1 [Compound 11, (E)-3-(2-fluoro-3-(trifluoromethyl)phenyl)-1-(4-(pyrrolidin-1-yl)phenyl)prop-2-en-1-one]	> 100	–	> 100	–	131 ± 3.02	–	–
O=C(/C=C/c1ccc(C(F)(F)F)cc1F)c1ccc(N2CCCC2)cc1 [Compound 12, (E)-3-(2-fluoro-4-(trifluoromethyl)phenyl)-1-(4-(pyrrolidin-1-yl)phenyl)prop-2-en-1-one]	> 100	80.11 ± 0.49	> 100	better inhibitory effect	81.8 ± 0.85	–	–
O=C(/C=C/c1ccc(F)cc1)c1ccc(N2CCCC2)cc1 [Compound 4, (E)-3-(4-fluorophenyl)-1-(4-(pyrrolidin-1-yl)phenyl)prop-2-en-1-one]	> 100	30.63 ± 0.25	> 100	better inhibitory effect	58.9 ± 3.26	–	–
O=C(/C=C/c1ccc(OC(F)(F)F)cc1)c1ccc(N2CCCC2)cc1 [Compound 9, (E)-1-(4-(pyrrolidin-1-yl)phenyl)-3-(4-(trifluoromethoxy)phenyl)prop-2-en-1-one]	> 100	39.97 ± 0.26	> 100	better inhibitory effect	61.3 ± 2.48	–	–
O=C(/C=C/c1ccccc1)c1ccccc1 [trans-chalcone]	–	–	–	–	–	96.4	–
O=C(/C=C/c1ccc(C(F)(F)F)cc1)c1ccc(N2CCCC2)cc1 [Compound 7, (E)-1-(4-(pyrrolidin-1-yl)phenyl)-3-(4-(trifluoromethyl)phenyl)prop-2-en-1-one]	> 100	38.2 ± 0.83	> 100	better inhibitory effect	46.5 ± 2.16	–	–
O=C(/C=C/c1ccc(F)c(C(F)(F)F)c1)c1ccc(N2CCCC2)cc1 [Compound 13, (E)-3-(4-fluoro-3-(trifluoromethyl)phenyl)-1-(4-(pyrrolidin-1-yl)phenyl)prop-2-en-1-one]	> 100	83.8 ± 0.01	> 100	–	261.5 ± 1.69	–	–
O=C(/C=C/c1ccccc1C(F)(F)F)c1ccc(N2CCCC2)cc1 [Compound 5, (E)-1-(4-(pyrrolidin-1-yl)phenyl)-3-(2-(trifluoromethyl)phenyl)prop-2-en-1-one]	82.2	91.71 ± 0.28	97.7	–	173 ± 3.45	–	no toxic effects
O=C(/C=C/c1cccc(C(F)(F)F)c1)c1ccc(N2CCCC2)cc1 [Compound 6, (E)-1-(4-(pyrrolidin-1-yl)phenyl)-3-(3-(trifluoromethyl)phenyl)prop-2-en-1-one]	> 100	83.78 ± 0.38	> 100	better inhibitory effect	54.1 ± 2.87	–	–
O=C(/C=C/c1cccc(OC(F)(F)F)c1)c1ccc(N2CCCC2)cc1 [Compound 8, (E)-1-(4-(pyrrolidin-1-yl)phenyl)-3-(3-(trifluoromethoxy)phenyl)prop-2-en-1-one]	60	–	> 100	–	147.5 ± 0.9	–	no toxic effects
